≈ marks a conversion by molar mass, not a printed value. Where only a bound is given, the exact number is not on record here.

Series [1] in a line: Salt form assessment of the tosylate salt (chemical stability, disassociation, aqueous solubility). It is filed as physicochemical.
A short description of another series: physchem. How it is done: Anal. Chem. Instrum. […] Drug Delivery Rev. […] The binding constant (K) of the gamma-CD inclusion complex ({drug4g}) was calculated from the initial straight line portion of the phase solubility diagram by linear regression, according to the following equation [T. Higuchi et al., Adv. Anal. Chem. Instrum.
Series [2] in a line: Biopharmaceutical classification system (BCS). It is filed as physicochemical. The source says:
The compound of formula (IV), its manufacture, its pharmacological activity as inverse agonists of the GABA A a5 receptor, and its use for the treatment, prevention and/or delay of progression of various central nervous system (CNS) conditions have been described in WO 2009/071476. […] Res. (1995) 12:413-420]. […] If anhydrous solid forms of the compound of formula (IV), as described in WO 2009/071476, are selected for clinical development, a physical instability in terms of hydrate formation during pharmaceutical processing and/or storage of the drug product is possible. […] Further, the discovery of new solid forms of an API (polymorphs, solvates, salts, inclusion complexes) enlarges the repertoire of materials that a formulation scientist has available with which to design a pharmaceutical dosage form of a drug with a targeted release profile or other desired characteristics. Therefore, there is a need to find more solid forms of the compound of formula (IV). […] The instant invention provides novel solid forms of the compound of formula (IV) with improved solubility, dissolution rate, oral bioavailability as well as increased stability of the API. In addition, the instant invention provides novel inclusion complexes of compounds of formula (IV) with cyclodextrins. Such inclusion complexes further feature improved dissolution rate and bioavailability. […]

A short description of series [3]: Hygroscopicity of solid forms of compound of formula (IV) (Ph. Eur. classification). It is filed as physicochemical. How it is done: For the thermogravimetric analyses, approx. 5 - 10 mg of sample were placed in aluminum pans, accurately weighed and hermetically closed with perforation lids. […] The samples were then heated under a flow of nitrogen of about 50 mL/min using a heating rate of 5 K/min. The term "micronization" denotes a process whereby the particle size of a solid material is diminished to a d50 value of less than IOµm by the aid of a suitable method, such as milling, bashing or grinding. […] The term "anti-solvent crystallization" denotes a process wherein supers aturation and as a result thereof crystallisation is achieved by addition of an antisolvent to the product solution. The term "ambient conditions" denotes conditions as experienced in a standard laboratory, e.g. atmospheric pressure, air, ambient temperature between 18 °C and 28 °C, humidity between 30 %rH and 80 %rH. The term "hygroscopicity" describes the ability of a solid material to adsorb moisture. The hygroscopicity of a given API is characterized [European Pharmacopoeia - 6th Edition (2008), Chapter 5.11) by the increase in mass when the relative humidity is raised from 0 %rH to 90 %rH: o non-hygroscopic: weight increase Am < 0.2%; o slightly hygroscopic: weight increase 0.2% < Am < 2.0%; o hygroscopic: weight increase 2.0% < Am < 15.0%; o very hygroscopic: weight increase Am > 15.0%; o deliquescent: sufficient water is adsorbed to form a liquid. The IUPAC lamda convention (W.H. Powell, Pure & Appl. Chem. […] The bonding number "n" of a heteroatom is the sum of the total number of valence bonds to adjacent atoms, if any, and the number of attached hydrogen atoms. The bonding number of a heteroatom is standard when it has the value given in the following table: n=4: C, Si, Ge, Sn, Pb; n=3 B, N, P, As, Sb, Bi, n=2: O, S, Se, Te, Po; n=l; F, CI, Br, I, At. A nonstandard bonding number of a (neutral) heteroatom is indicated by the symbol "λη", where "n" is the bonding number. […]

The nature of series [4]: Solid form stability of forms of compound of formula (IV) (Temperature / Humidity Controlled XRPD, storage, suspension). Format: physicochemical. As for the experimental part:
The term"XRPD" denotes the analytical method of X-Ray Powder Diffraction. XRPD patterns were recorded at ambient conditions in transmission geometry with a STOE STADI P diffractometer (Cu K alpha radiation source, primary monochromator, position sensitive detector, angular range 3° to 42° 2Theta, approximately 60 minutes total measurement time). The repeatability of the angular values is in the range of 2Theta ±0.2°. The term "approximately" given in combination with an angular value denotes the repeatability which is in the range of 2Theta ±0.2°. The samples were prepared and analyzed without further processing (e.g. grinding or sieving) of the substance. The relative XRPD peak intensity is dependent upon many factors such as structure factor, temperature factor, crystallinity, polarization factor, multiplicity, and Lorentz factor. Relative intensities may vary considerably from one measurement to another due to preferred orientation effects. Humidity Controlled XRPD analyses were performed in reflection geometry with a Siemens D5000 Diffractometer (Cu radiation source, Ni K beta filter, Scintillation detector, angular range 3° to 42° 2Theta, approximately 180 minutes total measurement time per humidity level). The diffractometer is equipped with an MRI (Materials Research Instruments) humidity chamber. The humidity within the chamber is adjusted with an ANSYCO humidity controller (SYCOS H-HOT). For single crystal structure analysis a single crystal sample was mounted in a nylon loop on a goniometer and measured at ambient conditions. Alternatively, the crystal was cooled in a nitrogen stream during measurement. Data were collected on a GEMINI R Ultra diffractometer from Oxford Diffraction. Cu-radiation of 1.54 A wavelength was used for data collection. Data was processed with the Oxford Diffraction CRYSALIS software. The crystal structure was solved and refined with standard crystallographic software. In this case the program ShelXTL from Bruker AXS (Karlsruhe) was used. The abbreviation "FWHM" denotes the full width at half maximum, which is a width of a peak (e.g. appearing in a spectrum, particularly in an XRPD pattern) at its half height. The term "sharp Bragg diffraction peak" in connection with X-ray diffraction patterns denotes a peak which is observed if Bragg' s law of diffraction is fulfilled. Generally, the FWHM of a sharp Bragg diffraction peak is less than 0.5° 2-theta. The term "amorphous halo" in connection with X-ray diffraction patterns denotes an approximately bell- shaped diffraction maximum in the X-ray powder diffraction pattern of an amorphous material. The FWHM of an amorphous halo is on principle larger than the FWHM of the peak of crystalline material. The terms "FTIR" and "IR" denote the analytical method of infrared spectroscopy. The IR-spectra of the samples are recorded as film of a Nujol suspension consisting of approx. 5 mg of sample and approx. 5 mg of Nujol (mineral oil) between two sodium chloride plates (cross section 13 mm) in transmittance with a FTIR- spectrometer. The spectra were recorded in spectral range between 4000 cm"1 and 600 cm"1, resolution 2 cm"1, and 300 coadded scans on a Magna 860 (thermo/Nicolet) equipped with a DTGS detector. The term "Raman" denotes the analytical method of Raman spectroscopy. For recording Raman spectra, the samples were spread on a glass slide. Raman spectra were recorded in the range of 150-3800 cm"1 with an ARAMIS (HoribaJobinYvon) Raman microscope equipped with a Peltier cooled CCD detector, at excitation of 633 nm, a 1200 1/mm grating, a x50 objective and with 3 exposures of 3s, or 7s for weak Raman scatterers. The term "DSC" denotes the analytical method of Differential Scanning Calorimetry. DSC thermograms were recorded using a Mettler-Toledo™ differential scanning calorimeter DSC820, DSC821 or DSC1 with a FRS05 sensor. […]

With `Cc1ccc(S(=O)(=O)O)cc1.Nc1[nH]ncc1-c1cc(Cl)ccc1Oc1cc(F)c(S(=O)(=O)Nc2cscn2)cc1Cl` [tosylate salt, 4-[2-(5-amino-1 H-pyrazol-4-yl)-4-chlorophenoxy]-5-chloro-2-fluoro-N-(1,3-thiazol-4-yl)benzenesulfonamide tosylate], the aqueous solubility result in series [1] is “good aqueous solubility”. Moreover, the “stability with regard to disassociation” value in series [1] (compared with other salts) is recorded as “greater stability”. Further, the chemical stability result in series [1] (in particular with regard to formulation and storage) is recorded as “improved chemical stability over the free base”.
As for `Cc1onc(-c2ccc(F)cc2)c1COc1ccc(C(=O)N2CCS(=O)(=O)CC2)cn1` [compound of formula (IV), (1,1-dioxo-1lambda6-thiomorpholin-4-yl)-{6-[3-(4-fluoro-phenyl)-5-methyl-isoxazol-4-ylmethoxy]-pyridin-3-yl]-methanone], the “type of phase solubility diagram with gamma-cyclodextrin” value in “physchem” was “Bs-type behavior”. For the same molecule, in series [2], the aqueous solubility entry is reported as “low aqueous solubility” and the biopharmaceutical classification result is “BCS 2”.
Consider `Cc1onc(-c2ccc(F)cc2)c1COc1ccc(C(=O)N2CCS(=O)(=O)CC2)cn1` [Amorphous Form ({drug4f}), (1,1-dioxo-1lambda6-thiomorpholin-4-yl)-{6-[3-(4-fluoro-phenyl)-5-methyl-isoxazol-4-ylmethoxy]-pyridin-3-yl]-methanone], for which the hygroscopicity result in series [3] was “slightly hygroscopic (slightly hygroscopic: weight increase 0.2% < Am < 2.0%)”. Also, the “phase change upon storage at 100 rH at ambient temperature” value in series [4] (Form C: prolonged period, e.g. 30 days) is “no phase transformation has been observed”.
For orientation: solubility means the dissolved amount per volume that the medium holds. Turning to `OC[C@H]1O[C@@H]2O[C@H]3[C@H](O)[C@@H](O)[C@@H](O[C@H]4[C@H](O)[C@@H](O)[C@@H](O[C@H]5[C@H](O)[C@@H](O)[C@@H](O[C@H]6[C@H](O)[C@@H](O)[C@@H](O[C@H]7[C@H](O)[C@@H](O)[C@@H](O[C@H]8[C@H](O)[C@@H](O)[C@@H](O[C@H]9[C@H](O)[C@@H](O)[C@@H](O[C@H]1[C@H](O)[C@H]2O)O[C@@H]9CO)O[C@@H]8CO)O[C@@H]7CO)O[C@@H]6CO)O[C@@H]5CO)O[C@@H]4CO)O[C@@H]3CO` [gamma-cyclodextrin], the solubility in “physchem” (water) came out at 150 mM (≈ 195 mg/mL).
As for `Cc1onc(-c2ccc(F)cc2)c1COc1ccc(C(=O)N2CCS(=O)(=O)CC2)cn1.O` [Form B ({drug4b}), (1,1-dioxo-1lambda6-thiomorpholin-4-yl)-{6-[3-(4-fluoro-phenyl)-5-methyl-isoxazol-4-ylmethoxy]-pyridin-3-yl]-methanone monohydrate], the hygroscopicity result in series [3] is given as “hygroscopic (hygroscopic: weight increase 2.0% < Am < 15.0%)”. Besides, the “heating temperature at which the form transforms into Form A” value in series [4] is over 100 °C. The “stability as compared to Form A” value in series [4] (in the presence of humidity, e.g. at ambient conditions) is on record as “substantially increased”.
